{"source": "paper PMC5218480", "about": "(PLoS ONE, 2017)", "system": "MV-4-11 cells", "assay": "Gene expression microarray analysis (Affymetrix PrimeView) and GSEA", "type": "cell-based, human", "design": "RFU PODN (11730768_x_at) / Fold change /veh PODN (11730768_x_at) / RFU LINC00158 (11744669_a_at) / Fold change /veh LINC00158 (11744669_a_at) / RFU DUSP10 (11751237_a_at) / Fold change /veh DUSP10 (11751237_a_at) / RFU ID3 (11757404_x_at) / Fold change /veh ID3 (11757404_x_at) / RFU PLEKHG5 (11737974_s_at) / Fold change /veh PLEKHG5 (11737974_s_at) / RFU LRRC4B (11730491_at) / Fold change /veh LRRC4B (11730491_at) / RFU GIMAP4 (11747438_a_at) / Fold change /veh GIMAP4 (11747438_a_at) / RFU KRT8 (11758183_x_at) / Fold change /veh KRT8 (11758183_x_at) / RFU CNN1 (11734310_a_at) / Fold change /veh CNN1 (11734310_a_at) / RFU VPS37D (11726825_at) / Fold change /veh VPS37D (11726825_at) / RFU C10orf10 (11716522_x_at) / Fold change /veh C10orf10 (11716522_x_at) / RFU KIR2DL2 /// KIR2DL4 /// KIR2DL5A /// KIR2DL5B /// KIR2DS1 /// KIR2DS2 /// KIR2DS3 /// KIR2DS4 /// KIR3DL3 /// KIR3DL3 /// KIR3DS1 (11738374_at) / Fold change /veh KIR2DL2 /// KIR2DL4 /// KIR2DL5A /// KIR2DL5B /// KIR2DS1 /// KIR2DS2 /// KIR2DS3 /// KIR2DS4 /// KIR3DL3 /// KIR3DL3 /// KIR3DS1 (11738374_at) / RFU C1QL1 (11718748_at) / Fold change /veh C1QL1 (11718748_at) / RFU TMPRSS4 (11747572_a_at) / Fold change /veh TMPRSS4 (11747572_a_at) / RFU HAMP (11756126_x_at) / Fold change /veh HAMP (11756126_x_at) / RFU RNFT2 (11725882_a_at) / Fold change /veh RNFT2 (11725882_a_at) / RFU NR4A2 (11747474_a_at) / Fold change /veh NR4A2 (11747474_a_at) / RFU ABCC12 (11746883_a_at) / Fold change /veh ABCC12 (11746883_a_at) / RFU TMEM136 (11760407_x_at) / Fold change /veh TMEM136 (11760407_x_at) / RFU CLDN22 /// WWC2 (11732394_at) / Fold change /veh CLDN22 /// WWC2 (11732394_at) / RFU HLA-DPB1 (11760878_x_at) / Fold change /veh HLA-DPB1 (11760878_x_at) / RFU SPINT1 (11716480_a_at) / Fold change /veh SPINT1 (11716480_a_at) / RFU GAP43 (11754022_s_at) / Fold change /veh GAP43 (11754022_s_at) / RFU A4GNT (11735810_at) / Fold change /veh A4GNT (11735810_at) / RFU PRB3 (11715151_x_at) / Fold change /veh PRB3 (11715151_x_at) / RFU TUBB4B (11761932_at) / Fold change /veh TUBB4B (11761932_at) / RFU CAPN14 (11732068_a_at) / Fold change /veh CAPN14 (11732068_a_at) / RFU TMCC2 (11721928_a_at) / Fold change /veh TMCC2 (11721928_a_at) / RFU IRGQ (11745062_a_at) / Fold change /veh IRGQ (11745062_a_at) / RFU FAM174B (11720279_a_at) / Fold change /veh FAM174B (11720279_a_at) / RFU TMPRSS4 (11748680_a_at) / Fold change /veh TMPRSS4 (11748680_a_at) / RFU FAM212B (11763350_a_at) / Fold change /veh FAM212B (11763350_a_at) / RFU PLEKHG5 (11743358_a_at) / Fold change /veh PLEKHG5 (11743358_a_at) / RFU ZSCAN30 (11745921_a_at) / Fold change /veh ZSCAN30 (11745921_a_at) / RFU CMKLR1 (11741424_a_at) / Fold change /veh CMKLR1 (11741424_a_at) / RFU LOC101060620 /// MAPK8IP1 (11723275_at) / Fold change /veh LOC101060620 /// MAPK8IP1 (11723275_at) / RFU SPTSSB (11747773_x_at) / Fold change /veh SPTSSB (11747773_x_at) / RFU PRSS12 (11739890_at) / Fold change /veh PRSS12 (11739890_at) / RFU BIN1 (11741810_x_at) / Fold change /veh BIN1 (11741810_x_at) / RFU WNT11 (11732464_a_at) / Fold change /veh WNT11 (11732464_a_at) / RFU C10orf10 (11716521_a_at) / Fold change /veh C10orf10 (11716521_a_at) / RFU C5orf56 (11738089_at) / Fold change /veh C5orf56 (11738089_at) / RFU CYB561 (11721691_x_at) / Fold change /veh CYB561 (11721691_x_at) / RFU ANKRD19P (11752326_a_at) / Fold change /veh ANKRD19P (11752326_a_at) / RFU OR2T12 /// OR2T33 /// OR2T8 (11738714_s_at) / Fold change /veh OR2T12 /// OR2T33 /// OR2T8 (11738714_s_at) / RFU VCAN (11748164_a_at) / Fold change /veh VCAN (11748164_a_at) / RFU JSRP1 (11732532_at) / Fold change /veh JSRP1 (11732532_at) / RFU KRTAP10-11 (11738290_x_at) / Fold change /veh KRTAP10-11 (11738290_x_at) / RFU MYO3A (11730013_a_at) / Fold change /veh MYO3A (11730013_a_at) / RFU EBF3 (11725865_a_at) / Fold change /veh EBF3 (11725865_a_at) / RFU CAMK2N1 (11719241_x_at) / Fold change /veh CAMK2N1 (11719241_x_at) / RFU C5orf56 (11738088_a_at) / Fold change /veh C5orf56 (11738088_a_at) / RFU OLFML3 (11715873_a_at) / Fold change /veh OLFML3 (11715873_a_at) / RFU LOC100653217 /// NTM (11731650_a_at) / Fold change /veh LOC100653217 /// NTM (11731650_a_at) / RFU MAPK11 (11762145_a_at) / Fold change /veh MAPK11 (11762145_a_at) / RFU FIZ1 (11724087_x_at) / Fold change /veh FIZ1 (11724087_x_at) / RFU OASL (11726364_x_at) / Fold change /veh OASL (11726364_x_at) / RFU SOX15 (11748057_x_at) / Fold change /veh SOX15 (11748057_x_at) / RFU CD79A (11719716_a_at) / Fold change /veh CD79A (11719716_a_at) / RFU HIST1H1D (11736915_at) / Fold change /veh HIST1H1D (11736915_at) / RFU CASKIN2 (11723855_a_at) / Fold change /veh CASKIN2 (11723855_a_at) / RFU LOC730098 (11760151_x_at) / Fold change /veh LOC730098 (11760151_x_at) / RFU OR4N2 (11742367_at) / Fold change /veh OR4N2 (11742367_at) / RFU PRRT2 (11749266_a_at) / Fold change /veh PRRT2 (11749266_a_at) / RFU SNX32 (11753110_a_at) / Fold change /veh SNX32 (11753110_a_at) / RFU CDHR5 (11726645_a_at) / Fold change /veh CDHR5 (11726645_a_at) / RFU RCAN1 (11760418_a_at) / Fold change /veh RCAN1 (11760418_a_at) / RFU FAM167A (11723789_a_at) / Fold change /veh FAM167A (11723789_a_at) / RFU FAM26E (11764081_at) / Fold change /veh FAM26E (11764081_at) / RFU ISYNA1 (11749810_s_at) / Fold change /veh ISYNA1 (11749810_s_at) / RFU ACY1 (11761880_at) / Fold change /veh ACY1 (11761880_at) / RFU 11764098_at / Fold change /veh 11764098_at / RFU SAMD14 (11745864_x_at) / Fold change /veh SAMD14 (11745864_x_at) / RFU NPB (11741838_a_at) / Fold change /veh NPB (11741838_a_at) / RFU TMPRSS6 (11731388_a_at) / Fold change /veh TMPRSS6 (11731388_a_at) / RFU KRTAP10-2 (11738614_at) / Fold change /veh KRTAP10-2 (11738614_at) / RFU ARHGAP8 /// PRR5-ARHGAP8 (11727945_x_at) / Fold change /veh ARHGAP8 /// PRR5-ARHGAP8 (11727945_x_at) / RFU KRTAP5-7 /// NADSYN1 (11734609_at) / Fold change /veh KRTAP5-7 /// NADSYN1 (11734609_at) / RFU RASL12 (11751679_a_at) / Fold change /veh RASL12 (11751679_a_at) / RFU CDKN2B (11736163_a_at) / Fold change /veh CDKN2B (11736163_a_at) / RFU PRF1 (11729649_at) / Fold change /veh PRF1 (11729649_at) / RFU, ZNF638 /// ZNF638-IT1 / Fold change vs veh, ZNF638 /// ZNF638-IT1 / RFU, PANK3 / Fold change vs veh, PANK3 / RFU, SH3YL1 / Fold change vs veh, SH3YL1 / RFU, ZEB2 / Fold change vs veh, ZEB2 / RFU, NRIP1 / Fold change vs veh, NRIP1 / RFU, PTTG1IP / Fold change vs veh, PTTG1IP / RFU, CAPN2 / Fold change vs veh, CAPN2 / RFU, MED14 / Fold change vs veh, MED14 / RFU, SNORA58 / Fold change vs veh, SNORA58 / RFU, C1orf63 / Fold change vs veh, C1orf63 / RFU, LRRFIP1 / Fold change vs veh, LRRFIP1 / RFU, NDUFAF7 / Fold change vs veh, NDUFAF7 / RFU, SLC12A2 / Fold change vs veh, SLC12A2 / RFU, IBTK / Fold change vs veh, IBTK / RFU, ESF1 / Fold change vs veh, ESF1 / Fold change vs veh, TMEM50B / RFU, TAOK1 / Fold change vs veh, TAOK1 / RFU, ACBD3 / Fold change vs veh, ACBD3 / RFU, TMA16 / Fold change vs veh, TMA16 / RFU, RWDD3 / Fold change vs veh, RWDD3 / RFU, BCAT1 / Fold change vs veh, BCAT1 / RFU, EDEM3 / Fold change vs veh, EDEM3 / RFU, TMEM33 / Fold change vs veh, TMEM33 / RFU, WDR75 / Fold change vs veh, WDR75 / RFU, AHCTF1 / Fold change vs veh, AHCTF1 / RFU, TFRC / Fold change vs veh, TFRC / RFU, ZDHHC17 / Fold change vs veh, ZDHHC17 / RFU, NOM1 / Fold change vs veh, NOM1 / RFU, ARL8B / Fold change vs veh, ARL8B / RFU, ZBTB11 / Fold change vs veh, ZBTB11 / RFU, TAMM41 / Fold change vs veh, TAMM41 / RFU, KIAA1704 /// LOC100996395 / Fold change vs veh, KIAA1704 /// LOC100996395 / RFU, ING1 / Fold change vs veh, ING1 / RFU, TRMT61B / Fold change vs veh, TRMT61B / RFU, FUBP3 / Fold change vs veh, FUBP3 / RFU, TP53 / Fold change vs veh, TP53 / RFU, TNKS2 / Fold change vs veh, TNKS2 / RFU, ZFP14 / Fold change vs veh, ZFP14 / RFU, ACTR2 / Fold change vs veh, ACTR2 / RFU, PPP3R1 / Fold change vs veh, PPP3R1 / RFU, PIK3R1 / Fold change vs veh, PIK3R1 / RFU, HNRNPA1 / Fold change vs veh, HNRNPA1 / RFU, RNF170 / Fold change vs veh, RNF170 / RFU, ZNF28 / Fold change vs veh, ZNF28 / RFU, RNGTT / Fold change vs veh, RNGTT / RFU, OGT / Fold change vs veh, OGT / RFU, BRD1 / Fold change vs veh, BRD1 / RFU, MARS / Fold change vs veh, MARS / RFU, ZNF655 / Fold change vs veh, ZNF655 / RFU, FAHD1 / Fold change vs veh, FAHD1 / RFU, BDP1 / Fold change vs veh, BDP1 / RFU, LRRCC1 / Fold change vs veh, LRRCC1 / RFU, ARID1A / Fold change vs veh, ARID1A / RFU, ZNF146 / Fold change vs veh, ZNF146 / RFU, ZNF330 / Fold change vs veh, ZNF330 / RFU, GPN3 / Fold change vs veh, GPN3 / RFU, C9orf123 / Fold change vs veh, C9orf123 / RFU, N4BP2L2 / Fold change vs veh, N4BP2L2 / RFU, ARFIP1 / Fold change vs veh, ARFIP1 / RFU, FAM179B / Fold change vs veh, FAM179B / RFU, BCL10 / Fold change vs veh, BCL10 / RFU, UHRF1BP1L / Fold change vs veh, UHRF1BP1L / RFU, BET1 / Fold change vs veh, BET1 / RFU, CNOT2 / Fold change vs veh, CNOT2 / RFU, ZNF268 / Fold change vs veh, ZNF268 / Fold change vs veh, ZNF507 / RFU, DGCR2 / Fold change vs veh, DGCR2 / RFU, WDSUB1 / Fold change vs veh, WDSUB1 / Fold change vs veh, HSP90B1 /// MIR3652 / RFU, ADSS / Fold change vs veh, ADSS / RFU, GK / Fold change vs veh, GK / RFU, ZNF148 / Fold change vs veh, ZNF148 / RFU, TAF9 / Fold change vs veh, TAF9 / RFU, SLC1A5 / Fold change vs veh, SLC1A5 / RFU, SLMO2 / Fold change vs veh, SLMO2 / RFU, ABCC4 / Fold change vs veh, ABCC4 / RFU, LOC101060439 /// RAP1B / Fold change vs veh, LOC101060439 /// RAP1B / RFU, RFX7 / Fold change vs veh, RFX7 / RFU, GTPBP10 / Fold change vs veh, GTPBP10 / RFU, CNEP1R1 / Fold change vs veh, CNEP1R1 / RFU, BIVM-ERCC5 /// ERCC5 / Fold change vs veh, BIVM-ERCC5 /// ERCC5 / RFU, ILF3 / Fold change vs veh, ILF3 / RFU 11762660_at / Fold change /veh 11762660_at / RFU VCAN (11757783_s_at) / Fold change /veh VCAN (11757783_s_at) / RFU DDX43 (11728927_at) / Fold change /veh DDX43 (11728927_at) / RFU KRT8 (11758188_x_at) / Fold change /veh KRT8 (11758188_x_at) / RFU NKD1 (11759106_at) / Fold change /veh NKD1 (11759106_at) / RFU SRD5A1 (11742802_a_at) / Fold change /veh SRD5A1 (11742802_a_at) / RFU TPSAB1 /// TPSB2 (11721975_s_at) / Fold change /veh TPSAB1 /// TPSB2 (11721975_s_at) / RFU GSTM3 (11746129_a_at) / Fold change /veh GSTM3 (11746129_a_at) / RFU IL23R (11737362_x_at) / Fold change /veh IL23R (11737362_x_at) / RFU TMEM51 (11727254_a_at) / Fold change /veh TMEM51 (11727254_a_at) / RFU PIWIL2 (11732686_x_at) / Fold change /veh PIWIL2 (11732686_x_at) / RFU ORM1 (11744905_x_at) / Fold change /veh ORM1 (11744905_x_at) / RFU CCDC152 (11743942_at) / Fold change /veh CCDC152 (11743942_at) / RFU ECM1 (11717891_a_at) / Fold change /veh ECM1 (11717891_a_at) / RFU IL23R (11748794_a_at) / Fold change /veh IL23R (11748794_a_at) / RFU TNFAIP8L3 (11732012_x_at) / Fold change /veh TNFAIP8L3 (11732012_x_at) / RFU MBOAT4 (11741988_at) / Fold change /veh MBOAT4 (11741988_at) / RFU 11764193_at / Fold change /veh 11764193_at / RFU TMEM53 (11763286_at) / Fold change /veh TMEM53 (11763286_at) / RFU MAGEB2 (11727129_at) / Fold change /veh MAGEB2 (11727129_at) / RFU TMEM200A (11744735_a_at) / Fold change /veh TMEM200A (11744735_a_at) / RFU CCDC152 (11751479_a_at) / Fold change /veh CCDC152 (11751479_a_at) / RFU FAM211A (11726209_a_at) / Fold change /veh FAM211A (11726209_a_at) / RFU RGS16 (11746705_a_at) / Fold change /veh RGS16 (11746705_a_at) / RFU VCAN (11755009_s_at) / Fold change /veh VCAN (11755009_s_at) / RFU RHOB (11743442_s_at) / Fold change /veh RHOB (11743442_s_at) / RFU RGS16 (11720943_a_at) / Fold change /veh RGS16 (11720943_a_at) / RFU RGS16 (11720944_at) / Fold change /veh RGS16 (11720944_at) / RFU, VPS4B / Fold change vs veh, VPS4B / RFU, CREB1 / Fold change vs veh, CREB1 / RFU, DNAJC13 / Fold change vs veh, DNAJC13 / RFU, GNAQ / Fold change vs veh, GNAQ / RFU, CDK5R1 / Fold change vs veh, CDK5R1 / RFU, ZRANB3 / Fold change vs veh, ZRANB3 / RFU, CUL4A / Fold change vs veh, CUL4A / RFU, CCNY / Fold change vs veh, CCNY / RFU, UFL1 / Fold change vs veh, UFL1 / RFU, COG3 / Fold change vs veh, COG3 / RFU, DIAPH2 / Fold change vs veh, DIAPH2 / RFU, SKA2 / Fold change vs veh, SKA2 / RFU, AFF3 / Fold change vs veh, AFF3 / RFU, LMF1 / Fold change vs veh, LMF1 / RFU, IPO11 / Fold change vs veh, IPO11 / RFU, DFFB / Fold change vs veh, DFFB / RFU, FOXP1 / Fold change vs veh, FOXP1 / RFU, CARD8 / Fold change vs veh, CARD8 / RFU, STRN3 / Fold change vs veh, STRN3 / RFU, ADK / Fold change vs veh, ADK / RFU, RASSF2 / Fold change vs veh, RASSF2 / RFU, WIPF1 / Fold change vs veh, WIPF1 / RFU, LARP1B / Fold change vs veh, LARP1B / RFU, RASA1 / Fold change vs veh, RASA1 / RFU, RB1 / Fold change vs veh, RB1 / RFU, PPFIA1 / Fold change vs veh, PPFIA1 / RFU, MAT2A / Fold change vs veh, MAT2A / RFU, CCT5 / Fold change vs veh, CCT5 / RFU, WDR92 / Fold change vs veh, WDR92 / RFU, CUX1 / Fold change vs veh, CUX1 / RFU, TTC7A / Fold change vs veh, TTC7A / RFU, TMEM135 / Fold change vs veh, TMEM135 / RFU, DEPTOR / Fold change vs veh, DEPTOR / RFU, CPM / Fold change vs veh, CPM / RFU, DNAJB6 / Fold change vs veh, DNAJB6 / RFU, CACNA2D3 / Fold change vs veh, CACNA2D3 / RFU, DTX4 / Fold change vs veh, DTX4 / RFU, TFCP2 / Fold change vs veh, TFCP2 / RFU, GMCL1 /// GMCL1P1 / Fold change vs veh, GMCL1 /// GMCL1P1 / RFU, AEBP2 / Fold change vs veh, AEBP2 / RFU, SNHG1 /// SNORD22 /// SNORD25 /// SNORD26 /// SNORD27 /// SNORD28 /// SNORD29 /// SNORD31 / Fold change vs veh, SNHG1 /// SNORD22 /// SNORD25 /// SNORD26 /// SNORD27 /// SNORD28 /// SNORD29 /// SNORD31 / Fold change (Aza/veh), C12orf56 (ProbeSet 11735607_a_at) / Fold change (ACY-1035/veh), C12orf56 (ProbeSet 11735607_a_at) / Fold change (Aza/veh), FGFR1OP (ProbeSet 11751329_s_at) / Fold change (ACY-1035/veh), FGFR1OP (ProbeSet 11751329_s_at) / Fold change (Aza/veh), VPS36 (ProbeSet 11739960_a_at) / Fold change (ACY-1035/veh), VPS36 (ProbeSet 11739960_a_at) / RFU SYPL1 (11715823_x_at) / Fold change /veh SYPL1 (11715823_x_at) / RFU IGFBP7 (11715501_s_at) / Fold change /veh IGFBP7 (11715501_s_at) / RFU REEP3 (11722064_at) / Fold change /veh REEP3 (11722064_at) / RFU IGLL1 (11728026_x_at) / Fold change /veh IGLL1 (11728026_x_at): dose or concentration left out as unconfirmed", "details": "ProbeSet 11753234_a_at; LIST B"}
{"smiles": "Nc1ncn([C@@H]2O[C@H](CO)[C@@H](O)[C@H]2O)c(=O)n1", "note": "[azacitidine]", "values": [{"measurement": "Fold change vs veh, TAMM41", "value": 0.86}]}
